Paper PMC7064771, “Repurposed Drugs That Block the Gonococcus-Complement Receptor 3 Interaction Can Prevent and Cure Gonococcal Infection of Primary Human Cervical Epithelial Cells” (mBio, 2020)
“Also recorded” adds a separate entry of the source. Where two headings read alike, the source gives them in different places.

What was measured:
human rI-domain [1] = target: T1, human rI-domain (Homo sapiens, UniProt P11215); assay: Surface plasmon resonance, immobilized human rI-domain; format: binding
T1 construct: Recombinant human and mouse I-domain proteins were made and purified as previously described; made in house
Method: (§1) SPR analyses were performed using a Biacore S200 system (GE Healthcare Life Sciences, Parramatta, NSW, Australia). Samples were analyzed at 25°C in phosphate-buffered saline (PBS) at a flow rate of 10 μl/min and by using single-cycle kinetics. Human rI-domain, mouse rI-domain, and human rCR3 were immobilized onto separate cells of a Series S CM5 sensor chip using an NHS capture kit (both from GE Healthcare Life Sciences) for purified pilin experiments. For experiments in which pilin-glycan-like structures were examined, human rI-domain and rCR3 were immobilized onto separate cells of a CM5 chip. A blank immobilization was used as a control/reference on all chips. MS11 wild-type and MS11 pglA pilin were serially diluted from 2 μM to 0.125 μM in PBS. Glycans (Dextra Laboratories, Reading, UK) (Table 2), resembling the gonococcal Gal(α1-3)diNAcBac pilin-linked glycan, were serially diluted from 2 μM to 0.0078 μM in PBS. Affinity data points were taken at 15 s after injection to avoid an artefactual signal resulting from bulk transport. SPR sensorgrams were analyzed using Biacore Evaluation software (GE Healthcare Life Sciences).

[2] = target: T2, human rCR3 (integrin αMβ2) (Homo sapiens, UniProt P05107+P11215); assay: Surface plasmon resonance, immobilized human rCR3; format: binding
T2 construct: purchased R&D Systems
Method: as §1

G2 peptide = target: T3, G2 peptide (Homo sapiens, UniProt P11215); assay: SPR of glycans over immobilized biotin-AhxG2-streptavidin complex; format: binding; conditions: for KD, G2 Peptide: synthetic glycans over biotin-Ahx-labeled G2 peptide complexed with streptavidin, NCDI = no concentration-dependent interaction
T3 construct: corresponds to amino acids Arg197 to Pro211 of human CD11b
Method: To assess the kinetics of the selected peptides, biotinylated versions of each peptide were synthesized. This enabled immobilization via streptavidin onto Series S CM5 sensor chips. Purified biotin-AhxG2 (G2 peptide with a six-carbon spacer linked to biotin) (Table S1), was incubated with streptavidin (Sigma, Castle Hill, NSW, Australia) for 2 h on ice at a 12:1 molar ratio of peptide to protein. Unreacted peptide was removed using a 10-kDa-molecular-weight-cutoff size exclusion column (EMD Millipore, Bayswater, VIC, Australia). Semi-native SDS-PAGE analysis was used to confirm peptide binding to streptavidin. To this end, streptavidin-peptide complexes were added to nonreducing NuPAGE sample buffer (Life Technologies, Scoresby, VIC, Australia). To ensure that peptide-streptavidin complexes were not denatured, heat was not applied before loading onto SDS-polyacrylamide 4% to 12% gradient gels (Life Technologies). A streptavidin-biotin complex was used as a reference control for the molecular weight shift that could be attributed to the peptide. Serially diluted glycans (1 μM to 0.0625 μM) were flowed over sensor chips. Other aspects of SPR analysis were as described above.

[3] = target: T4, human rCR3 (integrin αMβ2) (Homo sapiens, UniProt P11215); assay: Surface plasmon resonance, immobilized human rCR3; format: binding
T4 construct: purchased R&D Systems
Method: as §1

human rI-domain [4] = target: T1, human rI-domain; assay: Direct competition SPR, drug versus N. gonorrhoeae MS11 pilin; format: binding; conditions: drug and pilin at 1 μM
human rI-domain [5] = target: T1, human rI-domain; assay: Repurposed drug SPR against human CR3 I-domain (single-cycle kinetics); conditions: 10 nM to 0.625 nM, read-out: KD, binding to human rI-domain
Method: Human rI-domain was immobilized onto a CM5 sensor chip with a blank control flow cell as described above. A combination of two FDA-approved drug libraries, Microsource-CPOZ (2,400 drugs) and ML Drug (741 drugs), was purchased from Compounds Australia. […] A single-concentration injection screen (yes/no) binding assay was performed. Binding was determined based on the response unit shift (equal to the molecular weight-corrected response units of the positive-control glycan) of the stability of the binding phase of the dissociation cycle. […] For carbamazepine and methyldopa, saturation occurred between 1.6 nM and 8 nM, and so a new concentration range (10 nM to 0.625 nM) was tested. […] All SPR sensorgrams and result plots described above were analyzed with Biacore S200 evaluation software (GE Healthcare Life Sciences). A literature review was used to evaluate the remaining drugs for known long-term safety in humans and known therapeutic concentrations.

[6] = system: N. gonorrhoeae adherence to Pex cells; assay: Fluorometric adherence assay, Pex cells; format: cell-based, human; conditions: for Gonococcal adherence to Pex cells (fluorescence): 1-h infection with GFP-expressing N. gonorrhoeae, competitor added simultaneously
Method: (§2) Fluorometric adherence assays were performed essentially as described previously ([36]). In brief, N. gonorrhoeae MS11 gfp was used to challenge (1 h) Pex or CHO cells simultaneously with peptide or drug competitor. Infected (devoid of peptide or drug) and uninfected (with peptide, drug, or dimethyl sulfoxide [DMSO] vehicle) control cell assays were treated in parallel with competitive peptide/drug inhibition assays. Fluorescence (485 nm excitation, 528 nm emission) intensity, corresponding to bacterial adherence, was recorded using a Synergy HT multimode microplate reader (BioTek Instruments, Winooski, VT, USA). Blank wells, devoid of Pex or CHO cells, were inoculated with bacteria and served as a control for nonspecific binding. Each assay was performed in triplicates on 3 separate occasions. Peptides used are described in Table S1. A nonparametric analysis of variance (ANOVA) was used to determine the statistical significance of the calculated mean of bacterial adherence.

[7] = system: N. gonorrhoeae adherence to CHO-neo cells; assay: Fluorometric adherence assay, CHO-neo cells; format: cell-based, Chinese hamster; conditions: 1-h infection; cells do not express CR3
Method: as §2

[8] = system: N. gonorrhoeae infection of Pex cells
Method: Infection studies were performed as previously described with modification using a multiplicity of infection of 100 ([44]). To establish infection before treatment, Pex cells were challenged with N. gonorrhoeae for 90 min. The infection medium was then removed, the cells were rinsed thrice, and fresh medium containing 0.1% DMSO (vehicle control), carbamazepine (100 pM to 100 μM), methyldopa (100 pM to 100 μM), or ceftriaxone (0.1 μg/ml or 0.5 μg/ml, positive control) was added. Infections then proceeded for an additional 24 h or 48 h, after which, the infection medium was removed. Pex cell monolayers were subsequently lysed, serial dilutions of the Pex cell lysates were plated, and viable gonococci were enumerated by counting CFU after 48 h of incubation (37°C, 5% CO2). For sequential infection assays, viable bacterial colonies that survived a treatment assay were harvested from the enumeration (CFU) plates and used to inoculate new Pex cell monolayers. For these sequential assays, each infection (the original infection or the infection with bacteria that had survived the original infection) proceeded for 24 h. Pex cells were then processed, and bacteria were enumerated, as described above. For all assays, the percentage of N. gonorrhoeae that survived carbamazepine, methyldopa, or ceftriaxone treatment was determined as a function of bacteria that survived DMSO treatment (set to 100%). All assays were performed in triplicates on 3 separate occasions. A nonparametric ANOVA was used to determine the statistical significance of bacterial survival.

[9] = system: N. gonorrhoeae adherence to CHO-CR3 cells; assay: Fluorometric adherence assay, CHO-CR3 cells; format: cell-based, Chinese hamster; conditions: for Gonococcal adherence to CHO-CR3 cells (fluorescence): 1-h infection with GFP-expressing N. gonorrhoeae, competitor added simultaneously
Method: as §2

N. gonorrhoeae strains = assay: Well diffusion assay; format: cell-based, Neisseria gonorrhoeae; conditions: 100 pM to 100 μM in wells, overnight
Method: Well diffusion assays were performed essentially as described previously ([56]). Briefly, N. gonorrhoeae strains were spread uniformly across the surfaces of GC agar plates at a culture density of 10^7 bacteria per ml. Wells were then punctured within the agar surface to which carbamazepine or methyldopa (100 pM to 100 μM), 0.2 μg/ml ceftriaxone, 10 μg/ml ciprofloxacin, or 1% DMSO (vehicle control) was added. Following an overnight incubation (37°C, 5% CO2), inhibition of N. gonorrhoeae growth was measured as the diameter (in millimeters) of the area of clearing surrounding (and inclusive of) each well on each agar plate, i.e., the zone of inhibition (ZOI). For agar plates in which a ZOI was not visible, data were recorded as the diameter of the well (6 mm). Assays were performed in triplicates on 3 separate occasions. Statistical significance of data obtained was determined using a Student's t test.

rCR3 = target: T5, rCR3 (Homo sapiens, UniProt P11215); assay: Competitive SPR peptide library screen with galactobiose, rCR3; format: binding; conditions: peptide-galactobiose molar ratio 25:1
T5 construct: purchased R&D Systems
Text: (§3) The human I-domain sequence (NP_000623.2, amino acids Gly127 to Ala325 of CD11b) was used to generate a peptide library (Mimotopes; Mulgrave, VIC, Australia). Each peptide comprised 15 amino acids, with a 5-amino-acid sliding window, to give a 10-amino-acid overlap down the sequence, for a total of 40 peptides (see Table S1 in the supplemental material). Competitive SPR (Biacore T200 system; GE Healthcare Life Sciences) was used to screen the blocking potential of the peptide library. To this end, 100 μg/ml of each peptide was mixed with […] (2 μM) α1-3 galactobiose and flowed over immobilized human rI-domain and rCR3 on a Series S CM5 chip. Flow cell 1 was a blank immobilization/reference cell. Blocking peptides were defined as those peptides in which the peptide plus glycan response was less than those for the peptide and glycan alone. SPR sensorgrams were analyzed as noted above.

human rI-domain [10] = target: T1, human rI-domain; assay: Competitive SPR peptide library screen with galactobiose, rI-domain; format: binding; conditions: peptide-galactobiose molar ratio 25:1
Text: as §3

[11] = synthetic glycans, NCDI = no interaction at any concentration between 0.0078 μM and 2 μM, read-out: KD, rI-domain
[12] = synthetic glycans, NCDI = no interaction at any concentration between 0.0078 μM and 2 μM, read-out: KD, rCR3
[13] = synthetic glycans, NCDI = no interaction at any concentration between 0.0078 μM and 2 μM

OCC1OC(OC2C(O)C(O)OC(CO)C2O)C(O)C(O)C1O (centres unmarked) [Galactobiose]
Kd (human rI-domain [1]): 229 ± 73.1 nM
Kd [2]: 68.7 ± 1.75 nM
Kd (G2 peptide): 174 ± 45.1 nM

OC[C@H]1O[C@@H](O[C@H]2[C@H](O)[C@@H](O)[C@H](O)O[C@@H]2CO)[C@H](O)[C@@H](O)[C@H]1O [Lactose]
Kd (human rI-domain [1]; [11]): 117 ± 13.3 nM
Kd [2, 12]: 138 ± 33.7 nM

CC(=O)NC1C(O)OC(CO)C(OC2OC(CO)C(O)C(OC3OC(CO)C(O)C(O)C3O)C2O)C1O (centres unmarked) [Linear B-2 Trisaccharide]
Kd (human rI-domain [1]; [11]): 293 ± 13.1 nM
Kd [2, 12]: 44.8 ± 18.1 nM

CO[C@H]1O[C@H](CO)[C@H](O)[C@H](O)[C@H]1O [Methyl-α-D-galactose]
Kd (human rI-domain [1]; [11]): 269 ± 85.1 nM
Kd [2, 12]: 56.5 ± 19.8 nM
Kd (G2 peptide): 118 ± 11.8 nM

CC(=O)NC1C(O)OC(CO)C(OC2OC(CO)C(OC3OC(CO)C(O)C(O)C3O)C(O)C2O)C1O (centres unmarked) [P1 Antigen]
Kd (human rI-domain [1]; [11]): 202 ± 48.7 nM
Kd [2, 12]: 48.3 ± 14.2 nM

OC[C@H]1O[C@@](CO)(O[C@H]2O[C@H](CO)[C@@H](O)[C@H](O)[C@H]2O)[C@@H](O)[C@@H]1O [Sucrose]
KD, rI-domain (human rI-domain [1]; [13]): did not bind and NCDI
KD, rCR3 [3, 13]: did not bind and NCDI
KD, G2 Peptide (G2 peptide): NCDI
KD, G2 Peptide (G2 peptide; listed as sucrose): no concentration-dependent interaction

C[C@](N)(Cc1ccc(O)c(O)c1)C(=O)O [methyldopa]
Blocking of the interaction of N. gonorrhoeae MS11 pilin with rCR3 or rI-domain (human rI-domain [4]): completely blocked
Kd (human rI-domain [5]): 1.01 nM
Gonococcal adherence to Pex cells (fluorescence) [6]: decreased in a dose-dependent manner
Gonococcal adherence to Pex cells (fluorescence) ([6]; listed as Methyldopa): dose-dependent decrease
Gonococcal adherence to CHO-neo cells (fluorescence) [7]: but not to CHO-neo cells
N. gonorrhoeae strain MS11 survival ([8]; 24 h posttreatment, 100 pM to 100 μM): dose-dependent reductions
Numbers of viable gonococci, low-passage-number gonococcal isolates ([8]; 24 h posttreatment, established Pex cell infections): significant reductions
Efficacy in treating multidrug-resistant gonococci compared with ceftriaxone ([8]; panel of multidrug-resistant N. gonorrhoeae isolates): more effective than ceftriaxone
Gonococcal adherence to CHO-CR3 cells (fluorescence) [9]: decreased in a dose-dependent manner; also recorded: CR3- and dose-dependent reduction
Effect on gonococcal viability in the absence of Pex cells (zone of inhibition) (N. gonorrhoeae strains): no effect; also recorded: neither carbamazepine nor methyldopa had an effect

OCC1OC(OC2C(O)C(CO)OC(OC3C(CO)OC(OC4C(O)C(O)OC(CO)C4O)C(O)C3O)C2O)C(O)C(O)C1O (stereo not drawn) [α1-3,β1-4,α1-3 Galactotetraose]
Kd (human rI-domain [1]; [11]): 320 ± 67.2 nM
Kd [3, 12]: 26.2 ± 9.18 nM

OC[C@H]1O[C@@H](O[C@H]2[C@H](O)[C@@H](O)[C@@H](O)O[C@@H]2CO)[C@H](O)[C@@H](O)[C@H]1O [αLactose]
Kd (human rI-domain [1]; [11]): 202 ± 54.4 nM
Kd [2, 12]: 79.8 ± 15 nM

H-CATFTAPGRTSTFSF-OH [P2, H-CATFTAPGRTSTFSF-OH]
Gonococcal adherence to Pex cells (fluorescence) [6]: nonblocking
Gonococcal adherence to CHO-CR3 cells (fluorescence) [9]: nonblocking

H-CNNPSSTVPHNVDFH-OH [P1]
Gonococcal adherence to Pex cells (fluorescence) [6]: nonblocking
Gonococcal adherence to CHO-CR3 cells (fluorescence) [9]: nonblocking

H-RIHFTFKEFQNNPNP-OH [G2]
Blocking of galactobiose binding to rCR3 (rCR3): able to block
Gonococcal adherence to Pex cells, difference from uninfected cells ([6]; 100 μM peptide, P ≥ 0.45): not significantly
Gonococcal adherence to Pex cells (fluorescence) [6]: decreased; also recorded: dose-dependent reduction
Blocking of galactobiose binding to rI-domain (human rI-domain [10]): able to block
Gonococcal adherence to CHO-CR3 cells, difference from uninfected cells ([9]; 100 μM peptide, P ≥ 0.67): not significantly
Gonococcal adherence to CHO-CR3 cells (fluorescence) [9]: decreased; also recorded: dose-dependent reduction

MS11 wild type: N. gonorrhoeae MS11 pilin modified with the Gal(α1-3)diNAcBac disaccharide glycan
Kd ([3]; purified pilin 0.125-2 μM, NCDI = no concentration-dependent interaction (no binding of ≤2 μM), read-out: KD, Human CR3): 907 ± 43.8 nM
